This passage reports EC50 results from patent publication US20080107625A1, “Inhibitors of Hepatitis C Virus” (Bristol-Myers Squibb Company, priority 2006, published 2008).

As a reminder, the EC50 is the concentration that produces a half-maximal response.

The subject of experiment [1] is HCV replicon in HUH-7 cells. Put plainly: HCV replicon FRET assay. Type of experiment: cell-based, HCV strain 1b. Conditions: Hepatitis C virus, 96 h, 4 days. The text has this: (§1) An HCV replicon whole cell system was established as described by Lohmann V, Korner F, Koch J, Herian U, Theilmann L, Bartenschlager R., Science 285(5424): 110-3 (1999). This system enabled us to evaluate the effects of our HCV Protease compounds on HCV RNA replication. Briefly, using the HCV strain 1b sequence described in the Lohmann paper (Assession number: AJ238799), an HCV cDNA was synthesized by Operon Technologies, Inc. (Alameda, Calif.), and the full-length replicon was then assembled in plasmid pGem9zf(+) (Promega, Madison, Wis.) using standard molecular biology techniques. […]
The HCV replicon FRET assay was developed to monitor the inhibitory effects of compounds described in the disclosure on HCV viral replication. […] After 4 days, cells were first assessed for cytotoxicity using alamar Blue (Trek Diagnostic Systems) for a CC50 reading. The toxicity of compound (CC50) was determined by adding 1/10th volume of alamar Blue to the media incubating the cells. After 4 hours, the fluorescence signal from each well was read, with an excitation wavelength at 530 nm and an emission wavelength of 580 nm, using the Cytofluor Series 4000 (Perspective Biosystems). […]
A general note: Replicon systems follow genome replication, usually without infectious particles.

Experiment [2] concerns HCV replicon (Renilla luciferase reporter) in HUH-7 cells. Nature of the experiment: HCV replicon luciferase reporter assay. The experiment is classed as cell-based, HCV strain 1b. As to conditions: Huh-7, 96 h; 4 days.
Description: as §1
As a secondary assay, EC50 determinations from the replicon FRET assay were confirmed in a replicon luciferase reporter assay. […] Following 4 days in a 37° C./5% CO2 incubator, cells were analyzed for Renilla Luciferase activity using the Promega Dual-Glo Luciferase Assay System. […] Plates were read on a Packard TopCount NXT using a luminescence program.
The percentage inhibition was calculated using the formula below: • % control=average luciferase signal in experimental wells (+compound) • average luciferase signal in DMSO control wells (−compound)
The values were graphed and analyzed using XLfit to obtain the EC50 value.

Regarding `CC(C)(C)OC(=O)N[C@H]1CN(C2CC2)CCC/C=C\C2C[C@@]2(C(=O)NS(=O)(=O)C2CC2)NC(=O)[C@@H]2C[C@@H](Oc3ccccn3)CN2C1=O` (some centres unmarked) [Compound 1], the EC50 in experiment [1] is 1090 nM; in experiment [2], 202 nM.
